Key:
[1] = system: Marker tumor (metastatic breast cancer); assay: Marker tumor size in the metastatic breast cancer patient on Xeloda and Taxotere; format: in vivo, human; settings: seen prior to course 5, on lower dose Xeloda (1000 mg/m^2)
Description: They had refused mastectomy and had previously failed adriamycin and cytoxan, weekly taxol, and weekly navelbine. […] FIGS. 3A, 3B and 3C illustrate the incidence of Hand and Foot syndrome in patients treated with Xeloda®.

[2] = system: patients (hand-foot syndrome); settings: in vivo; cited from earlier work
[3] = molecular target: T1, OPRT (Homo sapiens, UniProt P11172); settings: neutral pH; cited from earlier work
T1 sequence (P11172 1-480): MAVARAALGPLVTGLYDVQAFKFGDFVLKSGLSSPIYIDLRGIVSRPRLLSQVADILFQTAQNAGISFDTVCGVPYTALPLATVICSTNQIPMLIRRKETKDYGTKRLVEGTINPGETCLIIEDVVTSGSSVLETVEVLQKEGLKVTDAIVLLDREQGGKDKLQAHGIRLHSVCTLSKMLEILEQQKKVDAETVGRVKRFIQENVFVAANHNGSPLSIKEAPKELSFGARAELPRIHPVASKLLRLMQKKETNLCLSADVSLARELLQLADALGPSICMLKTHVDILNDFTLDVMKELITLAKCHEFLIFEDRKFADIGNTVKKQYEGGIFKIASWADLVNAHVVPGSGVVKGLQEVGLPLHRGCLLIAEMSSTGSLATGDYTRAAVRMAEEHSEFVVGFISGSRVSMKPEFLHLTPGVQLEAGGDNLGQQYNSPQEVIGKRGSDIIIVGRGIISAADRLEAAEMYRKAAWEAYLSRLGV

[4] = molecular target: T2, dihydropyrimidine dehydrogenase (DPD) (Homo sapiens, UniProt Q12882); settings: in vivo; cited from earlier work
T2 construct: greater than 80% of an injected dose of 5-FU rapidly degraded by a single pathway
T2 sequence (Q12882 4-1025): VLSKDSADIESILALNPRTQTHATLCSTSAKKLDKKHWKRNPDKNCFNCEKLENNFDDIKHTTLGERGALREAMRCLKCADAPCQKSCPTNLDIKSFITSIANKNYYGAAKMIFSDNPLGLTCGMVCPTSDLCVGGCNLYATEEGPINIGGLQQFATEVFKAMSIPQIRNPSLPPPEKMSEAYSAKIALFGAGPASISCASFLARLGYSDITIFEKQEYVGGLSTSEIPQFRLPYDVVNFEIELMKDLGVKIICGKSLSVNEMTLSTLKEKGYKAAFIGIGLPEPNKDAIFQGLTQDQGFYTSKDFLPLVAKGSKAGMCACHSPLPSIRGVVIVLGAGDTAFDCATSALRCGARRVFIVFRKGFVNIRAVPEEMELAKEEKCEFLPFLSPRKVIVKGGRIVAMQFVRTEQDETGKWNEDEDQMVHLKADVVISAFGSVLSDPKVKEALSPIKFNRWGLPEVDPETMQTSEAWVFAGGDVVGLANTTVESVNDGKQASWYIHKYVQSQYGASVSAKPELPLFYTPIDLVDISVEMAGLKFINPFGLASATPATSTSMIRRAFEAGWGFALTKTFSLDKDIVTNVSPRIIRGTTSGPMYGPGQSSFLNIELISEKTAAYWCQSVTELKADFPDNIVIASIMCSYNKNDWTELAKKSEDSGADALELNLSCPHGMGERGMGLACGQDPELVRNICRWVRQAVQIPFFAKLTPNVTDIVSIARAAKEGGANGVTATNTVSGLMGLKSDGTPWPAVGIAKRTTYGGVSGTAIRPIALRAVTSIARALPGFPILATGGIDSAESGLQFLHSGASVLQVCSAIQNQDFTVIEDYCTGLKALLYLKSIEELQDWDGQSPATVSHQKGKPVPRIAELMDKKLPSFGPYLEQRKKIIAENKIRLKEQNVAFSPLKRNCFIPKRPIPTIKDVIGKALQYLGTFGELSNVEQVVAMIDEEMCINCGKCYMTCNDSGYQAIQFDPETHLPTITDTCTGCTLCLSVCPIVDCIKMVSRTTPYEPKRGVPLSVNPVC

[5] = molecular target: T3, human dihydrouracil dehydrogenase (DPD) (Homo sapiens, UniProt Q12882); settings: Naguib et al. 1985; cited from earlier work
T3 sequence (Q12882 4-1025): T2 sequence (Q12882 4-1025)

[6] = system: patients (Hand and Foot syndrome); assay: Ten patients treated one to six months, prevention of Hand and Foot syndrome; format: in vivo, human
Description: The calculations are based on topical application of 1 g of cream to the hands and 1 g to the feet twice a day, totaling 4 g. […] A volume of distribution (Vd) of 50 L is assumed.

Structure (SMILES): CCCCCOC(=O)Nc1nc(=O)n([C@@H]2O[C@H](C)[C@@H](O)[C@H]2O)cc1F [Xeloda, capecitabine]
- Marker tumor course (remark) [1]: progression
- frequency of hand-foot syndrome during treatment [2]: common
- patients with Grade II-III hand foot toxicity [2]: 10-50%

Structure (SMILES): O=c1[nH]cc(F)c(=O)[nH]1 [5-FU, 5-fluorouracil]
- OPRT preference for 5-FU over uracil [3]: about 50 times
- share of an injected dose rapidly degraded by the DPD pathway [4]: greater than 80%
- substrate quality for DPD compared with uracil [5]: better substrate

Structure (SMILES): O=C(O)c1cc(=O)[nH]c(=O)[nH]1 [Orotate, orotate]
- Km for OPRT, lower than that of 5-FU [3]: ~50 fold

Structure (SMILES): O=c1cc[nH]c(=O)[nH]1 [Uracil, uracil]
- toxicity [6]: no reports of toxicity
- prevention of Hand and Foot syndrome ([6]; 1% cream): complete efficacy

Source: patent publication US9084788B2, “Compositions and methods for treating and preventing dermatoses” (Asymmetric Therapeutics, LLC, priority 2002, dated 2015)
